Assay results taken from patent EP3693362B1, “PARASITIC PLANT GERMINATION REGULATOR” (National University Corporation Tokai National Higher …, priority 2017, dated 2019).

Experiments:
Assay in all cases: Affinity for strigolactone receptor, YLG probe competition (fluorescence)
Format in all cases: binding
Conditions in all cases: competition with YLG, test range 0.01 to 10 µM, pH 7.0, read-out: IC50 values of test compounds
[1] = target: T1, HTL10 (Striga hermonthica, UniProt A0A0M4AH20)
T1 sequence (A0A0M4AH20 1-268): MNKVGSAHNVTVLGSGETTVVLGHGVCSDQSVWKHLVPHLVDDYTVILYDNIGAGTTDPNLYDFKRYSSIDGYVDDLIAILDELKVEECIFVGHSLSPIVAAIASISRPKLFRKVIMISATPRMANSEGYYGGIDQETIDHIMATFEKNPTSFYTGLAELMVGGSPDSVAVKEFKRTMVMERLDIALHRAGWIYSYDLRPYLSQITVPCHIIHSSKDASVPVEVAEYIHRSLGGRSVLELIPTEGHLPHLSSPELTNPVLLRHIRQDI
Experimental: (§1) PTL 1 reports that the affinity of a test compound for the strigolactone receptor can be evaluated by reacting strigolactone with a probe for evaluation of affinity for a strigolactone receptor (e.g., YLG) in the presence of the test compound, and measuring the fluorescence emitted from the decomposition product of YLG. Therefore, the compounds synthesized in Example 1 were used as the test compounds, and the affinity for the strigolactone receptor was evaluated by a similar method to the above. The details are as follows.
(§2) An Arabidopsis thaliana strigolactone receptor (AtD14) was produced in accordance with a usual method. More specifically, cDNA of the receptor was obtained by RT-PCR, and expression and purification were carried out in E. coli. Additionally, Striga strigolactone receptors were produced by the method disclosed in PTL 1 (ShHTL1: amino acid SEQ ID NO: 1, ShHTL2: amino acid SEQ ID NO: 2, ShHTL3: amino acid SEQ ID NO: 3, ShHTL4: amino acid SEQ ID NO: 4, ShHTL5: amino acid SEQ ID NO: 5, ShHTLS: amino acid SEQ ID NO: 6, ShHTL7: amino acid SEQ ID NO: 7, ShHTLS: amino acid SEQ ID NO: 8, ShHTL9: amino acid SEQ ID NO: 9, ShHTL10: amino acid SEQ ID NO: 10, and ShHTL11: amino acid SEQ ID NO: 11.)
(§3) One hundred microliters of a reaction solution containing each of the obtained strigolactone receptors ([…]), YLG (final concentration: […]), and each of the test compounds (final concentration: 0.01 to 10 µM) or the control compound (5-deoxystrigol, final concentration: 0.01 to 10 µM) as a competitive compound (100 mM HEPES, 150 mM NaCl, pH: 7.0, 0.1% DMSO) was prepared and reacted in a 96 black-well plate (Greiner). Sixty after the initiation of the reaction, fluorescence was detected at an excitation wavelength of 480 nm and a detection wavelength of 520 nm using a fluorescence detector (SpectraMax i3, manufactured by Molecular Devices), and the fluorescence intensity was measured. Based on the measurement results of fluorescence intensity, a Lineweaver-Burk plot was created to calculate the Km values, and the IC50 values of each of the test compounds and the control compound, which are competitive compounds.
(§4) In Table 7, HTL1 to HTL11 refer to strigolactone receptors (SEQ ID NOs: 1 to 11), and AtD14 refer to the Arabidopsis thaliana strigolactone receptor.

[2] = target: T2, HTL6 (Striga hermonthica, UniProt A0A0M4AUV4)
T2 sequence (A0A0M4AUV4 1-271): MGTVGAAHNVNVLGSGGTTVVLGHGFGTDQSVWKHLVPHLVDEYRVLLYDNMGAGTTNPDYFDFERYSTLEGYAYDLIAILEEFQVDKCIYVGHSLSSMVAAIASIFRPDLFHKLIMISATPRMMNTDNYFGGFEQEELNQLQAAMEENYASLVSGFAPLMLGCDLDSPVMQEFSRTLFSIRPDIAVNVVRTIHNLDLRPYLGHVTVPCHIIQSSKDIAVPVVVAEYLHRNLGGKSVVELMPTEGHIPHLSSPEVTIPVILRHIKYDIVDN
Experimental: as §1, §2, §3, §4

[3] = target: T3, HTL8 (Striga hermonthica, UniProt A0A0M4APJ4)
T3 sequence (A0A0M4APJ4 1-272): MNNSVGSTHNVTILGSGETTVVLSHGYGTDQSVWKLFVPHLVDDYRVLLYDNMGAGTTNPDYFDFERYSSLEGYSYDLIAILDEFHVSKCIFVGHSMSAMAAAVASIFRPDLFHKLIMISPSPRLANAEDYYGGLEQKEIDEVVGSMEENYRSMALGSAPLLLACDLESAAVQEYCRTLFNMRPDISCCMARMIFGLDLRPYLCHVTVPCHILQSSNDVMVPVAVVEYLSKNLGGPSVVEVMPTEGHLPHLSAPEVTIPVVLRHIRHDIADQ
Experimental: as §1, §2, §3, §4

[4] = target: T4, HTL3 (Striga hermonthica, UniProt A0A0M3PN85)
T4 sequence (A0A0M3PN85 1-276): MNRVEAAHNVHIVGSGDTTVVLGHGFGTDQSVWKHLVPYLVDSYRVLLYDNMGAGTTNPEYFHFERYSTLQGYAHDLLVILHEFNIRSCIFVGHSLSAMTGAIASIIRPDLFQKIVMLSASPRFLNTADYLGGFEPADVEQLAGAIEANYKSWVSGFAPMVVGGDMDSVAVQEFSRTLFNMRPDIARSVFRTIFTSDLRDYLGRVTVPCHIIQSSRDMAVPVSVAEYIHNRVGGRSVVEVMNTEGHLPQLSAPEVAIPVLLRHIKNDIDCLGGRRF
Experimental: as §1, §2, §3, §4

[5] = target: T5, HTL2 (Striga hermonthica, UniProt A0A0M4AMP1)
T5 sequence (A0A0M4AMP1 1-285): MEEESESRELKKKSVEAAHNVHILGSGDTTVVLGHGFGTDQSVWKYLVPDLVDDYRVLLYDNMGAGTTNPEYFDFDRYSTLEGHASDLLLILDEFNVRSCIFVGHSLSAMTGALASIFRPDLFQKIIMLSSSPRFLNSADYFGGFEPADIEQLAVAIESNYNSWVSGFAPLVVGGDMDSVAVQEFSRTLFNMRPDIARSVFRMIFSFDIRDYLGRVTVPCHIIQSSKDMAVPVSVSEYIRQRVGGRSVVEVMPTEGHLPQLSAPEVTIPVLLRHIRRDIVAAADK
Experimental: as §1, §2, §3, §4

[6] = target: T6, HTL11 (Striga hermonthica, UniProt A0A0M4AS18)
T6 sequence (A0A0M4AS18 1-268): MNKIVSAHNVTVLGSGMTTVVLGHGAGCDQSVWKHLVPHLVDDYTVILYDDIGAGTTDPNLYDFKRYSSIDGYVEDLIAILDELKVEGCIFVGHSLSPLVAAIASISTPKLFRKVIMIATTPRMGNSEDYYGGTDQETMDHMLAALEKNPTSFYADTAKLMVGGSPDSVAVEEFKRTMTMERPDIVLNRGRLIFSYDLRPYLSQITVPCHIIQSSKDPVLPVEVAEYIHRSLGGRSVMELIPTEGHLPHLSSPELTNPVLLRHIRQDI
Experimental: as §1, §2, §3, §4

Row | SMILES | IC50 [1] | IC50 [2] | IC50 [3] | IC50 [4] | IC50 [5] | IC50 [6]
1 | CC1=CC(OC=C2C(=O)OC3C4=C(CCCC4(C)C)CC23)OC1=O (stereo not drawn) [5-Ddeoxystriqol, 5-deoxystrigol, reference compound] | 0.62 µM | 0.19 µM | 0.36 µM | 9.3 µM | 8.9 µM | 1.6 µM
2 | CC1=CC(OC(=O)NCc2ccccc2)OC1=O (stereo not drawn) [Comparison Compound 1, reference compound] | > 10 µM | > 10 µM | > 10 µM | > 10 µM | > 10 µM | 0.66 µM
3 | CCCCOc1ccc(S(=O)(=O)N2CCN(C(=O)OC3C=C(C)C(=O)O3)CC2)cc1 (stereo not drawn) [Compound 1] | > 10 µM | > 10 µM | 1.1 µM | > 10 µM | > 10 µM | 1.8 µM
4 | CCCCOc1ccc(S(=O)(=O)N2CCN(C(=O)OC3C=CC(=O)O3)CC2)cc1 (stereo not drawn) [Compound 13] | > 10 µM | > 10 µM | > 10 µM | 2 µM | > 10 µM | > 10 µM
